Test results taken from US20110288115A1, “TREATMENT OF VAGALLY-MEDIATED SPECTRUM DISORDERS” (AVMEDIS LLC, priority 2010, published 2011).

Tests used:
[1] = system: patient suffering from alcohol dependence; assay: Treatment of alcohol abuse in a patient with alcohol dependence; assay type: in vivo; settings: person; 5 mg per day via nasal spray; within one month; patient report
Experimental: The patient is a person suffering from alcohol dependence and complaining of symptoms including abdominal pain, confusion, nausea and vomiting, neglecting to eat, and shaking in the morning. The patient is prescribed granisetron 5 mg per day taken via nasal spray.

[2] = system: patient with panic disorder; assay: Treatment of panic disorder in a patient with a 5-HT3 receptor antagonist; assay type: in vivo; settings: patient previously treated largely unsuccessfully with SSRIs, MAOIs, tricyclic antidepressants, benzodiazepines; 8 mg/day to 30 mg/day for 5 to 60 days
Experimental: A patient presents with symptoms including rapid heartbeat, perspiration, dizziness, dyspnea, trembling, uncontrollable fear, and hyperventilation, indicative of panic disorder. The patient has previously been treated, largely unsuccessfully, with selective serotonin reuptake inhibitors (SSRIs), monoamine oxidase inhibitors (MAOIs), tricyclic antidepressants, and benzodiazepines. The patient is treated for 5 to 60 days sequentially with ondansetron administered at a dose of 8 mg/day to 30 mg/day.

CN1C2CCCC1CC(NC(=O)c1nn(C)c3ccccc13)C2 (stereo not drawn) [granisetron]
control over drinking [1]: able to exert control over their drinking | improvement of symptoms (abdominal pain, confusion, nausea and vomiting, neglecting to eat, shaking in the morning) [1]: all of the above symptoms have improved considerably

Cc1nccn1CC1CCc2c(c3ccccc3n2C)C1=O (stereo not drawn) [ondansetron, 1,2,3,9-tetrahydro-9-methyl-3-[(2-methyl-1H-imidazol-1-yl]methyl]-4H-carbazol-4-one]
amelioration of panic disorder (severity and frequency of panic attacks and their symptoms) [2]: long-lasting amelioration of panic disorder
